Results as given in patent US20110319392A1, “Thiazole Sulfonamide And Oxazole Sulfonamide Kinase Inhibitors” (priority 2009, published 2011).
Counter-ions that a name gives are not always drawn.

Key:
EGFR = biological target: T1, EGFR (Homo sapiens, UniProt P00533); assay: EGFR substrate phosphorylation assay (HTRF); type: biochemical
T1 construct: made in house; host or cells: baculovirus expression system
Procedure, shortened: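 Baculovirus-expressed EGFR (0.8 nM) or ErbB2 (10 nM) in enzyme mix, preincubated 1 h at 20 °C with compound (0.00027–47.6 μM final), then 90 min at 20 °C with substrate mix of 20 μM ATP, 0.8 uM biotinylated Peptide C, MnCl2, MOPS pH 7.5. Phosphotyrosine by HTRF; pIC50 reported.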

HN5 tumor cells = assay: Cell growth inhibition assay (CellTiter-Glo), HN5; type: cell-based, Human; settings: Homo sapiens, 72 h; 3 days incubation
Experimental: (§1) Human breast tumor cells (BT474) were cultured in RPMI (Mediatech […]), containing 10% FBS (JRH Biosciences 12176) and 1% penicillin-streptomycin (Invitrogen 15140). Human head and neck tumor cells (HN5) were cultured in high glucose DMEM (Mediatech 50-013-PB) containing 10% FBS and 1% penicillin-streptomycin. Human colon tumor cells (Colo205) were cultured in RPMI (Mediatech 50-020-PB) containing 10% FBS and 1% penicillin-streptomycin. Human melanoma cancer cells (SK-MEL-28) were cultured in EMEM with nonessential amino acids (Mediatech 50-011-PB) containing 10% FBS, 1% sodium pyruvate (JT Baker 3354-04), and 1% penicillin-streptomycin. Human melanoma cancer cells (A375P F11s) were cultured in RPMI (Mediatech 50-020-PB) containing 10% FBS, 1% sodium pyruvate, and 1% penicillin-streptomycin. Human colon cancer cells (HT-29) were cultured in high glucose DMEM (Mediatech 50-013-PB) containing 10% FBS and 1% penicillin-streptomycin. Human melanoma cancer cells (SK-MEL-3) were cultured in McCoy's 5A (50-025-PB) containing 15% FBS, and 1% penicillin-streptomycin. All cell lines were maintained at 37° C. in a humidified 5% CO2, 95% air incubator. Cells were harvested using trypsin/EDTA (Invitrogen 25200), counted using a haemocytometer, and plated. For 96-well assays (using white full-area NUNC plates cat. #136102), cells were plated in 105 μL at the following densities (cells/well): HNS, 500; Colo 205, 500; SK-MEL-28, 500; A375P F11s, 500; HT-29, 500; SK-MEL-3, 500; and BT474, 3000. For 384-well assays (white full-area NUNC plates, cat. #781080), cells were plated in 48 μL at the following densities (cells/well): HNS, 500; Colo205, 500; SK-MEL-28, 500; A375P F11s, 500; HT-29, 500; SK-MEL-3, 500; and BT474, 2000.
(§2) The next day, compounds were diluted as follow: For 96-well assays, 13.5 μL of compound in DMSO were diluted using nine (9) serial 1:3 dilutions of 4.5 μL in 9 of DMSO. Medium (270 μL/well of RPMI with 10% FBS and 1% penicillin-streptomycin) was added to the plates. Aliquots (7 μL) were added to cells in the final assay giving a final DMSO concentration of 0.2%. For 384-well assays, 15 μL of compound in DMSO were diluted using nine (9) serial 1:3 dilutions of 5 μL in 10 μL of DMSO, followed by a further dilution of 5 μL of compound with 95 μL of medium, of which 2 μL were added to cells in the final assay giving a final DMSO concentration of 0.2%. Cells were incubated at 37° C., 5% CO2 for 3 days.
(§3) Total ATP was measured (as a surrogate estimate of cell number) using CellTiter-Glo® reagent (Promega G7571). Briefly, plates were removed from the incubator and allowed to equilibrate to room temperature for 30 minutes. CellTiter-Glo® (25 μL or 55 μL for 384-well or 96-well assays, respectively) reagent was added to each well and plates were shaken on an orbital plate shaker for 2 minutes. Plates were incubated without shaking for a further 30 minutes and read on an LJL Analyst GT reader in luminometer mode with an integration time of 0.5 seconds per well. Percent inhibition of cell growth was calculated relative to DMSO vehicle-treated control wells. Concentration of compound required to give 50% inhibition of vehicle-treated control cell growth (IC50) was interpolated using a 4-parameter fit for determining IC50 using the following equation: Y=A +((B−A)/(1+((C/X)̂D))) where […].

SK-MEL-28 tumor cells = assay: Cell growth inhibition assay (CellTiter-Glo), SK-MEL-28; type: cell-based, Human; settings: Homo sapiens, SK-MEL-28, 72 h; 3 days incubation
Procedure, shortened: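 Cells plated at 500 cells/well in their growth media, dosed next day with nine-step 1:3 compound dilutions (final DMSO 0.2%), then incubated 3 days at 37° C, 5% CO2. Total ATP read by CellTiter-Glo luminescence as a surrogate for cell number; IC50 interpolated from 4-parameter fit versus DMSO controls.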

HT-29 tumor cells = assay: Cell growth inhibition assay (CellTiter-Glo), HT-29; type: cell-based, Human; settings: Homo sapiens
Experimental: as §1, §2, §3

T1 sequence (P00533 25-1210): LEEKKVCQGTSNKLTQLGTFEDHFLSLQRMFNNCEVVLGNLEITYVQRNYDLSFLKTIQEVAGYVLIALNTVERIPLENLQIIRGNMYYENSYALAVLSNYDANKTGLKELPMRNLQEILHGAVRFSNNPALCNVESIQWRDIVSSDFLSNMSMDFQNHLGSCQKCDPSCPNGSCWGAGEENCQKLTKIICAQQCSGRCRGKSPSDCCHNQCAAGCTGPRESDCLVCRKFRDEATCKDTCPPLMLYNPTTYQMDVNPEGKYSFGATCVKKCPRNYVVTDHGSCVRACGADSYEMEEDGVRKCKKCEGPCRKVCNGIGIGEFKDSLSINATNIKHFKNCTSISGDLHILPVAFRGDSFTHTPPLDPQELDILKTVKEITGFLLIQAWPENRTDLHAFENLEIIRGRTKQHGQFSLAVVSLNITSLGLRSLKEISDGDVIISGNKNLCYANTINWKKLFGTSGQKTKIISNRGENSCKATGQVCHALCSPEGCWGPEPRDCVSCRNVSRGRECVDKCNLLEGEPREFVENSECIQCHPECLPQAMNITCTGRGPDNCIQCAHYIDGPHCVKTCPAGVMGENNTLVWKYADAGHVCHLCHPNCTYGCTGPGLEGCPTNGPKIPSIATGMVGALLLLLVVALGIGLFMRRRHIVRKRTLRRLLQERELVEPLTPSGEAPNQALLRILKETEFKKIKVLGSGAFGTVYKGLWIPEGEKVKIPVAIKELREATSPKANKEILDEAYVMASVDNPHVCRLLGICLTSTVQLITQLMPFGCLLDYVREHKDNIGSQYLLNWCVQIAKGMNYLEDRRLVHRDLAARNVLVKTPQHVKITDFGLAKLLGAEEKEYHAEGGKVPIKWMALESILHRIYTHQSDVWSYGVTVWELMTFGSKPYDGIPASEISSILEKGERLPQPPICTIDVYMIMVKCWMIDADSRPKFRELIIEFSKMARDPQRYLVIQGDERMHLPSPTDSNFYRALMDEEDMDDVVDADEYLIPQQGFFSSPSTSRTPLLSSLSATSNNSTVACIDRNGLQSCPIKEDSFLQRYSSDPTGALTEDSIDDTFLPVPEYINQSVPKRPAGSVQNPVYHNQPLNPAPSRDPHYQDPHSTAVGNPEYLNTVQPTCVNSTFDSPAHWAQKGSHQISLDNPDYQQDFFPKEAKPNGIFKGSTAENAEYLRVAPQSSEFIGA

| IC50 (EGFR) [nM] | IC50 (HN5 tumor cells) [nM] | IC50 (SK-MEL-28 tumor cells) [nM] | IC50 (HT-29 tumor cells) [nM] | SMILES |
| --- | --- | --- | --- | --- |
| < 100 | 100 to 1000 | < 100 | < 100 | O=S(=O)(Nc1cccc(-c2nc(N3CCCC3)sc2-c2ccnc(Nc3ccc(N4CCN(CCF)CC4)c(F)c3)n2)c1)c1c(F)cccc1F [Example 21, 2,6-Difluoro-N-{3-[5-[2-({3-fluoro-4-[4-(2-fluoroethyl)-1-piperazinyl]phenyl}amino)-4-pyrimidinyl]-2-(1-pyrrolidinyl)-1,3-thiazol-4-yl]phenyl}benzenesulfonamide] |
| 100 to 1000 | > 1000 | < 100 | 100 to 1000 | CC(C)c1nc(-c2ccc(F)c(NS(=O)(=O)c3ccccc3F)c2)c(-c2ccnc(Nc3ccc(N4CCN(CCS(C)(=O)=O)CC4)c(F)c3)n2)s1 [Example 22, 2-Fluoro-N-{2-fluoro-5-[5-{2-[(3-fluoro-4-}4-[2-(methylsulfonyl)ethyl]-1-piperazinyl}phenyl)amino]-4-pyrimidinyl}-2-(1-methylethyl)-1,3-thiazol-4-yl]phenyl}benzenesulfonamide hydrochloride] |
| 100 to 1000 | > 1000 | < 100 | < 100 | CC(C)c1nc(-c2ccc(F)c(NS(=O)(=O)c3c(F)cccc3F)c2)c(-c2ccnc(Nc3ccc(N4CCOCC4)nc3)n2)s1 [Example 23, 2,6-Difluoro-N-{2-fluoro-5-[2-(1-methylethyl)-5-(2-{[6-(4-morpholinyl)-3-pyridinyl]amino}-4-pyrimidinyl)-1,3-thiazol-4-yl]phenyl}benzenesulfonamide] |
| > 1000 | > 1000 | < 100 | < 100 | CC(C)c1nc(-c2ccc(F)c(NS(=O)(=O)c3c(F)cccc3F)c2)c(-c2ccnc(Nc3ccc(N4CCC(C#N)CC4)nc3)n2)s1 [Example 24, N-{5-[5-(2-{[6-(4-Cyano-1-piperidinyl)-3-pyridinyl]amino}-4-pyrimidinyl)-2-(1-methylethyl)-1,3-thiazol-4-yl]-2-fluorophenyl}-2,6-difluorobenzenesulfonamide] |
| 100 to 1000 | > 1000 | 100 to 1000 | 100 to 1000 | CC(C)c1nc(-c2ccc(F)c(NS(=O)(=O)c3c(F)cccc3F)c2)c(-c2ccnc(Nc3ccc(N4CCN(CCF)CC4)c(F)c3)n2)s1 [Example 25] |
| 100 to 1000 | > 1000 | < 100 | > 1000 | O=S(=O)(Nc1cc(-c2nc(N3CCCC3)sc2-c2ccnc(Nc3ccc(N4CCOCC4)nc3)n2)ccc1F)c1c(F)cccc1F [Example 26, 2,6-Difluoro-N-{2-fluoro-5-[5-(2-{(6-(4-morpholinyl)-3-pyridinyl]amino}-4-pyrimidinyl)-2-(1-pyrrolidinyl)-1,3-thiazol-4-yl]phenyl}benzenesulfonamide] |
| 100 to 1000 | > 1000 | 100 to 1000 | 100 to 1000 | CN(C)c1nc(-c2ccc(F)c(NS(=O)(=O)c3c(F)cccc3F)c2)c(-c2ccnc(Nc3ccc(N4CCOCC4)nc3)n2)s1 [Example 27, N-{5-[2-(Dimethylamino)-5-(2-{[6-(4-morpholinyl)-3-pyridinyl]amino}-4-pyrimidinyl)-1,3-thiazol-4-yl]-2-fluorophenyl}-2,6-difluorobenzenesulfonamide] |
| > 1000 | > 1000 | < 100 | 100 to 1000 | CC(C)(C)c1nc(-c2ccc(F)c(NS(=O)(=O)c3c(F)cccc3F)c2)c(-c2ccnc(Nc3ccc(N4CCOCC4)nc3)n2)s1 [Example 28, N-{5-[2-(1,1-Dimethylethyl)-5-(2-{[[6-(4-morpholinyl)-3-pyridinyl]amino}-4-pyrimidinyl)-1,3-thiazol-4-yl]-2-fluorophenyl]-2,6-difluorobenzenesulfonamide hydrochloride] |
| > 1000 | 100 to 1000 | < 100 | 100 to 1000 | CC(C)c1nc(-c2cccc(NS(=O)(=O)c3c(F)cccc3F)c2F)c(-c2ccnc(Nc3ccc(N4CCN(CCF)CC4)c(F)c3)n2)s1 [Example 29, 2,6-Difluoro-N-{2-fluoro-3-[5-[2-({3-fluoro-4-[4-(2-fluoroethyl)-1-piperazinyl]phenyl}amino)-4-pyrimidinyl]-2-(1-methylethyl)-1,3-thiazol-4-yl]phenyl}benzenesulfonamide] |
| > 1000 | < 100 | < 100 | 100 to 1000 | CC(C)c1nc(-c2cccc(NS(=O)(=O)c3c(F)cccc3F)c2F)c(-c2ccnc(Nc3cnc(N4CCOCC4)c(F)c3)n2)s1 [Example 30, 2,6-Difluoro-N-{2-fluoro-3-[5-(2-{[5-fluoro-6-(4-morpholinyl)-3-pyridinyl]amino}-4-pyrimidinyl)-2-(1-methylethyl)-1,3-thiazol-4-yl]phenyl}benzenesulfonamide] |
| > 1000 | > 1000 | 100 to 1000 | < 100 | CC(C)c1nc(-c2cc(F)c(F)c(NS(=O)(=O)c3cccc(F)c3)c2)c(-c2ccnc(Nc3cnc(N4CCOCC4)c(F)c3)n2)s1 [Example 31, N-{2,3-Difluoro-5-[5-(2-{[5-fluoro-6-(4-morpholinyl)-3-pyridinyl]amino}-4-pyrimidinyl)-2-(1-methylethyl)-1,3-thiazol-4-yl]phenyl}-3-fluorobenzenesulfonamide] |
| > 1000 | > 1000 | < 100 | > 1000 | CC(C)c1nc(-c2ccnc(NS(=O)(=O)c3c(F)cccc3F)c2)c(-c2ccnc(Nc3ccc(N4CCOCC4)nc3)n2)s1 [Example 32, 2,6-Difluoro-N-{4-[2-(1-methylethyl)-5-(2-{[6-(4-morpholinyl}-3-pyridinyl]amino}-4-pyrimidinyl)-1,3-thiazol-4-yl]-2-pyridinyl}benzenesulfonamide] |
| > 1000 | > 1000 | < 100 | 100 to 1000 | CC(C)c1nc(-c2ccnc(NS(=O)(=O)c3c(F)cccc3F)c2)c(-c2ccnc(Nc3cnc(N4CCOCC4)c(F)c3)n2)s1 [Example 33] |
| > 1000 | > 1000 | 100 to 1000 | > 1000 | CCc1nc(-c2cccc(CNS(=O)(=O)c3ccccc3)c2)c(-c2ccnc(Nc3ccc(N4CCOCC4)c(F)c3)n2)s1 [Example 34] |
| < 100 | > 1000 | 100 to 1000 | > 1000 | CC(=O)N1CCN(c2ccc(Nc3nccc(-c4sc(C(C)C)nc4-c4cccc(NS(=O)(=O)c5cn(C)cn5)c4)n3)cn2)CC1 [Example 36] |
| > 1000 | > 1000 | 100 to 1000 | > 1000 | CC(C)c1nc(-c2cccc(NS(=O)(=O)C3CCCCC3)c2)c(-c2ccnc(Nc3ccc(N4CCOCC4)c(F)c3)n2)s1 [Example 38] |
| 100 to 1000 | > 1000 | 100 to 1000 | > 1000 | CC(=O)N1CCN(c2ccc(Nc3nccc(-c4sc(C(C)C)nc4-c4cccc(NS(=O)(=O)C5CCCCC5)c4)n3)cn2)CC1 [Example 39] |
